In US10064830B2, “Treatment and prevention of cardiovascular disease and thrombosis” (The Cleveland Clinic Foundation, priority 2012, dated 2018):
“Also recorded” adds a separate entry of the source.

Key:
platelets = test: Ex vivo platelet aggregation triggered by ADP, platelets from mice on diets (Example 7, parts 2-4); assay type: in vivo; conditions: platelets from mice on high choline or TMAO diet +/- antibiotics or DMB
Description: (§1) In this example, mice were placed on either normal chow diet at time of weaning, or a high choline diet. After several weeks, whole blood was removed, and platelets isolated. The ability of a submaximal agonist of platelets, ADP, to trigger platelet aggregation was then determined. In parallel, plasma levels of TMAO were determined by established stable isotope dilution LC/MS/MS analyses. […] This is a clear signal of a pro-thrombotic phenotype in the mice on a high choline diet. In a similar study, the mice on the high choline were also placed on a cocktail of broad spectrum antibiotics (described above and in Wang et al., Nature 2011, April, 472(7341):57-63, incorporated by reference it its entirety for all purposes) to suppress intestinal microflora, and reduce plasma TMAO levels. […] Such drugs (e.g., DMB or antibiotics) are attractive since they should not induce excess bleeding (e.g., like commercial anti-thrombotic drugs like clopidogrel or Warfarin). That is, TMAO only accentuates platelet function, and reducing TMAO levels (like with DMB, antibiotic, or some other drug or approach, be it functional food, probiotic, or prebiotic) would decrease in vivo thrombosis, but not reduce below “normal” function, and thus not increase bleeding risk. […]

gut flora [1] = test: Plasma TMAO by stable isotope dilution LC/MS/MS in the mice of the platelet aggregation study; assay type: in vivo; conditions: high choline diet +/- antibiotics or DMB
Description: as §1

wild-type mice = test: Carotid artery in vivo thrombosis rates by vital microscopy, wild-type mice (Example 7, parts 6-7); conditions: for in vivo thrombosis rates: diets +/- ABS or DMB for 3 weeks
Description: This example repeats the study immediately above, excepts uses wild-type mice. The results are shown FIG. 14.
Carotid artery in vivo thrombosis rates were determined using vital microscopy on the indicated groups of mice shown in FIG. 15. Mice were on the indicated diets +/− ABS or DMB for 3 weeks.

intestinal microflora = test: Intestinal microflora-catalyzed generation of trimethylamine from D9-choline in cecum homogenate (Example 6); assay type: biochemical, Mouse; conditions: D9-choline substrate
Description: Experiments were conducted during development of embodiments of the present invention to examine the effect of DMB on intestinal microflora-catalyzed generation of trimethylamine from choline. Mouse celum was homogenized as a source of intestinal microflora. D9-choline was used as a substrate and the generation of […] was quantificed by stable isotope dilution LC/MS/MS.

[2] = system: peritoneal mouse macrophages; test: Total cholesterol in peritoneal macrophages by stable isotope dilution LC/MS/MS (Example 5); assay type: in vivo, C57BL/6J.Apoe−/− male mice; conditions: chow with 1.3% choline, 1.3% DMB, both or neither
Description: Experiments were conducted during development of embodiments of the present invention to determine the effect of DMB on total cholesterol level in peritoneal mouse macrophages (SEE FIG. 7). C57BL/6J.Apoe−/− male mice at the time of weaning (4 weeks) were placed on chow diet supplemented with 1.3% choline, 1.3% DMB, both, or neither. The total cholesterol of cells was quantified by stable isotope dilution LC/MS/MS. Cells number was quantified by protein content in cell lystates.

gut flora [3] = test: Plasma TMA and TMAO in mice after 3 weeks on diets +/- ABS or DMB (Example 7, part 1); assay type: in vivo; conditions: female mice, 3 weeks on diet, chow or 1.0% wt/wt choline
Description: Six week old female mice were placed on the indicated diets +/− shown in FIG. 9, including Chow, CHOW+antibiotics (ABS; which was 0.5 g/L vancomycin, 1 g/L neomycin sulfate, 1 g/L metronidazole, and 1 g/L ampicillin), TMAO, CH (chow supplemented with 1.0% wt/wt choline), CH and ABS, and CH+DMB. Mice were placed on these diets at 6 weeks of age and maintained on the diets for 3 weeks. Plasma was then recovered and both TMA and TMAO were determined by stable isotope dilution LC/MS/MS.

[4] = system: endogenous foam cell formation; test: Macrophage cholesterol content and plasma TMAO in mice on chow supplemented with choline, TMAO or DMB (Example 1); assay type: in vivo, C57BL/6J.Apoe−/− mice; conditions: normal chow supplemented with choline, TMAO or DMB vs normal chow control
Description: Male C57BL/6J.Apoe−/− mice (15 week old) were placed on normal chow (control) alone or supplemented in the presence of either choline (1.0%), TMAO (0.12%), or DMB (1.0%). Peritoneal macrophages were recovered from the indicated number of mice at 20 weeks of age and cellular cholesterol content was quantified by stable isotope dilution GC/MS, and normalized to DNA content.
Experiments were conducted during development of embodiments of the present invention to examine the structural specificity of phaophatidylcholine metabolites in promoting a pro-atherogenic macrophage phenotype as monitored by endogenous foam cell formation. C57BL/6J.Apoe−/− mice at time of weaning were placed on either normal chow diet (control) or normal chow supplemented with either choline, TMAO or the choline analog DMB, where the quaternary amine nitrogen of choline is replaced with a carbon (SEE FIG. 2, right). Thus, DMB is structurally identical to choline except there is no C—N bond for potential cleavage and TMA formation by gut flora.

[5] = system: C57BL/6J.Apoe−/− male mice; test: Aortic root lesion plaque, oil red O staining (Example 2); assay type: in vivo
From the text: C57BL/6J.Apoe−/− male mice at the time of weaning (4 weeks) were placed on chow diet supplemented with 1.3% choline, 1.3% DMB, both, or neither. Aortic root section was stained with oil red 0/hematoxin. The red oil staining area inside the aorta indicates lesion plaque (SEE FIGS. 3 and 4).

Peritoneal macrophages = test: Cholesterol accumulation and foam cell formation in peritoneal macrophages, oil red O staining (Example 4); assay type: in vivo, C57BL/6J.Apoe−/− male mice; conditions: 1.3% DMB added to 1.3% choline diet
Description: Experiments were conducted during development of embodiments of the present invention to examine the effect of addition of DMB on cholesterol accumulation and foam cell formation. C57BL/6J.Apoe−/− male mice at the time of weaning (4 weeks) were placed on chow diet supplemented with 1.3% choline, 1.3% DMB, both, or neither. Peritoneal macrophages were collected, fixed in 4% paraformaldehyde and stained with oil red 0/hematoxin.

[6] = Plasma lipoprotein profile of mice on supplemented chow (Example 3); assay type: in vivo; conditions: 1.3% DMB added to mouse diet
Description: Experiments were conducted during development of embodiments of the present invention to compare plasma levels of (1) cholesterol, (2) triglyceride, low density lipoprotein-cholesterol, and HDL cholesterol in mice fed chow, or chow supplemented with 1.3% choline, 1.3% DMB, or both (SEE FIG. 5).

[7] = system: Atherosclerosis Prone ApoE−/− Mice; test: Carotid artery in vivo thrombosis rates by vital microscopy, ApoE−/− mice (Example 7, part 5); conditions: diets +/- ABS for 3 weeks
Description: In this example, carotid artery in vivo thrombosis rates were determined using vital microscopy on the indicated groups of mice in FIG. 13. Mice were on the indicated diets +/− ABS for 3 weeks.
These studies extend to in vivo studies what was seen before with ex vivo platelet aggregation studies from mice on the various indicated diets. […] A shorter time indicates faster platelet aggregation (enhanced in vivo thrombosis).

proteus mirabilis = test: TMA production from choline by proteus mirabilis (FIG. 24); assay type: cell-based

| SMILES | platelet aggregation (response to ADP) (platelets) | plasma TMAO levels (gut flora [1]) | in vivo thrombosis rates (wild-type mice) | TMAO levels (wild-type mice; high choline diet +/- ABS or DMB for 3 weeks) | gut flora-mediated catabolism of choline to TMA (intestinal microflora) | macrophage cholesterol content (total cholesterol of cells) [2] | plasma TMA (gut flora [3]) | plasma TMAO (gut flora [3]) | macrophage cholesterol content [4] | plasma levels of TMAO [4] | reduction of aortic plaque formation ([5]; 1.3% DMB added to normal chow diet, apoE−/− mice) [%] | increases in atherosclerotic plaque induced by the high choline diet ([5]; addition to chow with 1.3% choline) | cholesterol accumulation and foam cell formation (Peritoneal macrophages) | plasma HDL cholesterol [6] | plasma low density lipoprotein-cholesterol [6] | plasma total cholesterol [6] | plasma triglyceride [6] | in vivo thrombosis rates (time to cessation of blood flow in the carotid artery) [7] | TMA production from choline (proteus mirabilis) |
| --- | --- | --- | --- | --- | --- | --- | --- | --- | --- | --- | --- | --- | --- | --- | --- | --- | --- | --- | --- |
| CC(C)(C)CCO [DMB, 3,3-dimethyl-1-butanol] | markedly reduces platelet hyperresponsiveness; also recorded: blocks platelet hyper-responsiveness (aggregation) | inhibits TMAO formation | block the reduction in in vivo thrombosis rates seen on a high choline diet | block TMAO levels | markedly inhibited | blocked | inhibits TMA and TMAO formation | inhibits TMA and TMAO formation | no increased accumulation of cholesterol in endogenous macrophages | no TMAO increase | ~90 | blocks the diet-induced enhanced artherosclerosis | reversed the high choline diet induced cholesterol accumulation and foam cell formation | increase in high density lipoproteins | significant reductions | significant reductions | significant reductions |  |  |
| C[N+](C)(C)[O-] [TMAO, trimethylamine N-oxide, reference compound] | promotes enhanced platelet aggregation |  | Enhances In Vivo Thrombosis Rates |  |  |  |  |  | increased macrophage cholesterol content | elevated plasma levels of TMAO |  |  |  |  |  |  |  | promotes accelerated in vivo thrombosis rates |  |
| C[Si](C)(C)CCO [trimethylsilylethanol, trimethylsilyl ethanol] |  |  |  |  |  |  |  |  |  |  |  |  |  |  |  |  |  |  | serves as an inhibitor of TMA production from choline |
